This is an account of results in patent publication US20110021542A1, “Use of a Combination of Udenafil and Alfuzosin or Oxybutynin for the Treatment of Overactive Bladder” (PELVIPHARM, priority 2008, published 2011).

The assay deals with carbachol precontracted human bladder strips. Put plainly: Relaxation of carbachol-precontracted human detrusor strips. It counts as tissue-based. The conditions noted are these: carbachol 10^-6 M precontraction; cumulative 10^-9 to 3.10^-5 M; compared with tadalafil, sildenafil, vardenafil; FIG. 1. The procedure: The experiments, collection and use of any tissue or other samples were carried out in accordance with the Research Plan, all relevant laws, regulations and codes of practice, including having obtaining informed consent of patients in writing. Bladders were obtained from donors undergoing cystectomy for infiltrating bladder cancer with no known bladder dysfunction according to their medical chart. In accordance with French legislation, human tissue samples were obtained with patient informed consent and after hepatitis and HIV serologies determination. After surgical procedure, bladder samples were immediately transported from the operating room to the pathologist facilities where a normal piece of the bladder dome, i.e. with no macroscopic tumoral tissue, was selected for experiments by the pathologist. […] The strips were connected to force transducers (Pioden Controls Ltd, UK) and following amplification, the tension changes were recorded via MacLab™/8 using Chart™ 5 software (AD Instruments Ltd). […] For the evaluation of the effect of drugs to inhibit carbachol-induced contractions, relaxations in response to increasing and cumulative concentrations of PDE5 inhibitors or oxybutynin or corresponding concentrations of vehicle are expressed as the percentage of inhibition of the contractile response to carbachol. […]

On to `CCCOc1ccc(S(=O)(=O)NCCC2CCCN2C)cc1-c1nc2c(CCC)nn(C)c2c(=O)[nH]1` (stereo not shown) [Udenafil, 5-[2-propyloxy-5-(1-methyl-2-pyrrolidinylethylamidosulfonyl)phenyl]-methyl-3-propyl-1,6-dihydro-7H-pyrazolo(4,3-d)pyrimidine-7-one], for which the “inhibitory effect to relax carbachol-induced contractions of human bladder strips” value was “greater inhibitory effect than the other PDE-5 inhibitors tested”.
